Patent publication US10670605B2, “Cysteine reactive probes and uses thereof” (The Scripps Research Institute, priority 2015, dated 2020)
Blank lines part the entries; values can stand above or below the compound they belong to.

Tests used:
Test in all cases: Competitive isoTOP-ABPP in situ (fragment-treated cells)
Type in all cases: cell-based
[1] = biological target: T1, cysteines in MDA-MB-231 and Ramos cells (Homo sapiens, UniProt Q2NL82)
T1 sequence (Q2NL82 1-804): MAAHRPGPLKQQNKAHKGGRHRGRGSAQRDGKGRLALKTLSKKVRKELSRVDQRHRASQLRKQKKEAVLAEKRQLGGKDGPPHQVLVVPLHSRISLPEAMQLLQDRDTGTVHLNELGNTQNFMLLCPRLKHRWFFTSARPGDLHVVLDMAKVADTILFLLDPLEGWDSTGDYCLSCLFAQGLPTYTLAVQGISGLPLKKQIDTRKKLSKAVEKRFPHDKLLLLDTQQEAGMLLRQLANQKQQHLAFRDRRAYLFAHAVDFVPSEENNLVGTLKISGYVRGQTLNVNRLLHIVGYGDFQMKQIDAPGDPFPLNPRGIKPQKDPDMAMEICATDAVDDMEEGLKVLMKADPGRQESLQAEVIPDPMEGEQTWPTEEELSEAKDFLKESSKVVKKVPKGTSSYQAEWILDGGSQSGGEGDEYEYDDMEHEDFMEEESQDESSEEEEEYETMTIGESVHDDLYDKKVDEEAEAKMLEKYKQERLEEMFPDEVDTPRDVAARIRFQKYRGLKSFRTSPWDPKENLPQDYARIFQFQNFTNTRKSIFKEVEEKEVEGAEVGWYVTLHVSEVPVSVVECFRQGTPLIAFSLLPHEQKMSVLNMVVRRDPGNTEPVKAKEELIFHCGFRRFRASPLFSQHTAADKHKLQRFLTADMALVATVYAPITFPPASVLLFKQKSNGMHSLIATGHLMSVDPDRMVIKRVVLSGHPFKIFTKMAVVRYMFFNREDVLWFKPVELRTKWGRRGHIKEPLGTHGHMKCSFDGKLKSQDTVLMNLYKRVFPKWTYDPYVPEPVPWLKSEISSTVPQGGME

[2] = biological target: cysteines in MDA-MB-231 and Ramos cells (Homo sapiens, UniProt Q8NDH3)
Sequence of cysteines in MDA-MB-231 and Ramos cells (Homo sapiens, UniProt Q8NDH3) (Q8NDH3 whole entry): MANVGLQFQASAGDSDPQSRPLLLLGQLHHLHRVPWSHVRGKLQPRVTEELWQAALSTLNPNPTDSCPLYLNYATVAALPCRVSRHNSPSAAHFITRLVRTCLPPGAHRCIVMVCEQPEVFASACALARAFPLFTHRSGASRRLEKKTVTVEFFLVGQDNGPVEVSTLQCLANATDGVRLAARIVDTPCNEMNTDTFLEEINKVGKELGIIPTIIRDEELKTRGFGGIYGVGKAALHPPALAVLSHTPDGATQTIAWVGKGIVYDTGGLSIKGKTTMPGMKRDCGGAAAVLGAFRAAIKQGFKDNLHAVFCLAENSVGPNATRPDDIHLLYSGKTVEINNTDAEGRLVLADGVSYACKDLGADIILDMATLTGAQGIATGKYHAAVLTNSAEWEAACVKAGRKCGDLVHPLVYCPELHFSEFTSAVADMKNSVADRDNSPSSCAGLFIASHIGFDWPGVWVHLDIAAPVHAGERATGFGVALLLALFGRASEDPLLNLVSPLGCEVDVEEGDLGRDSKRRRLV

[3] = biological target: cysteines in MDA-MB-231 and Ramos cells (Homo sapiens, UniProt O14933); conditions: for isoTOP-ABPP ratio, cysteine O14933_C98 / isoTOP-ABPP ratio O14933_C98: 200 μM, insitu
Sequence of cysteines in MDA-MB-231 and Ramos cells (Homo sapiens, UniProt O14933) (O14933 whole entry): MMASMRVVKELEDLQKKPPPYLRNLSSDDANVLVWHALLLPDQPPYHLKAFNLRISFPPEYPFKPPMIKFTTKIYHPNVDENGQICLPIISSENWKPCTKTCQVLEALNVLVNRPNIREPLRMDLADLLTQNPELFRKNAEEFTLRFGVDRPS

[4] = biological target: cysteines in MDA-MB-231 and Ramos cells (Homo sapiens, UniProt Q00765)
Sequence of cysteines in MDA-MB-231 and Ramos cells (Homo sapiens, UniProt Q00765) (Q00765 whole entry): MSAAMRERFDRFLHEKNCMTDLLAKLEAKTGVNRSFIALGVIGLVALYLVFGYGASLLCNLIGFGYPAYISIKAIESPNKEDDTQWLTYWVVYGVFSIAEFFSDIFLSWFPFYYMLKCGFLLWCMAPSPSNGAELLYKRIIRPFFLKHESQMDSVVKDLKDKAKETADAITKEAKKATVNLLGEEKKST

[5] = biological target: T2, cysteines in MDA-MB-231 and Ramos cells (Homo sapiens, UniProt Q96RU2)
T2 sequence (Q96RU2 1-1077): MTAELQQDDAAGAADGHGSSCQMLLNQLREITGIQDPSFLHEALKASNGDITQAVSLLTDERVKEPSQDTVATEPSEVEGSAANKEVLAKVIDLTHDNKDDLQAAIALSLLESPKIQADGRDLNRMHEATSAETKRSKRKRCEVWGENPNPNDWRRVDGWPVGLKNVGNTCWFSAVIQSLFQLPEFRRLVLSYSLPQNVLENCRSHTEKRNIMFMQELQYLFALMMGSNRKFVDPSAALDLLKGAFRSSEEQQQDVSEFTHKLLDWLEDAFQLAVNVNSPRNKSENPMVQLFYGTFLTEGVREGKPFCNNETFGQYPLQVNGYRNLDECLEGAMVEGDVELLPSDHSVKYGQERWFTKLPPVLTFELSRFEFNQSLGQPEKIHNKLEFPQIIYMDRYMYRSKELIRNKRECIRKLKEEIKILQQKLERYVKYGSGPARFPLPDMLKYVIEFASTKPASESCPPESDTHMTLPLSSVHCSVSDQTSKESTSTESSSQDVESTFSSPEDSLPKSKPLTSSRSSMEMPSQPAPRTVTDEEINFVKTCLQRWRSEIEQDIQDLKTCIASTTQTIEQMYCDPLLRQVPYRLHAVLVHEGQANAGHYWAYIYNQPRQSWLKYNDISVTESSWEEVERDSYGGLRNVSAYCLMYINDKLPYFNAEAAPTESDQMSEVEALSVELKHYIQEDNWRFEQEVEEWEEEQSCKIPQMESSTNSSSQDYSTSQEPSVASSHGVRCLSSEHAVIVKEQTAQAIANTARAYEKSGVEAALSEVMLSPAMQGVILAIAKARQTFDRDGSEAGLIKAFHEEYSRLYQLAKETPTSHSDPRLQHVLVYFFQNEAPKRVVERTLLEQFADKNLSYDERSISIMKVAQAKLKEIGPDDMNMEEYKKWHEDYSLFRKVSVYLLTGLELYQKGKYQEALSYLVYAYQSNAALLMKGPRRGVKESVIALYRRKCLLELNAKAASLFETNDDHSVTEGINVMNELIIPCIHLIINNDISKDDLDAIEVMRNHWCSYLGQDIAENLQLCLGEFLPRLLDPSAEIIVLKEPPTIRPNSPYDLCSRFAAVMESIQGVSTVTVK

[6] = biological target: T3, cysteines in MDA-MB-231 and Ramos cells (Homo sapiens, UniProt Q9NY27)
T3 sequence (Q9NY27 1-417): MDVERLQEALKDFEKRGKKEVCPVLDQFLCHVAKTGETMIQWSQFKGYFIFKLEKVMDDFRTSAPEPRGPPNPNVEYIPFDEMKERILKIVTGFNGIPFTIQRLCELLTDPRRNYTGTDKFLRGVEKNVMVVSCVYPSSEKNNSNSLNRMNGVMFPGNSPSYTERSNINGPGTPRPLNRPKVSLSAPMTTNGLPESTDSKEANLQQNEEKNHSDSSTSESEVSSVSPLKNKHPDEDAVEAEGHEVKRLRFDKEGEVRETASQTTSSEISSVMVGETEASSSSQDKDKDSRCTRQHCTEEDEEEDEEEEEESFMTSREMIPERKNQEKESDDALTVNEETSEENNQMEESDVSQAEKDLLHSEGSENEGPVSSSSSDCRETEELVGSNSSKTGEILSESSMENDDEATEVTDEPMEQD

Compound: COc1ccc2c(c1)CCCN2C(=O)CCl [compound 2]
- isoTOP-ABPP reactivity Q2NL82_C126 TSR1 ([1]; 200 μM, insitu, 231): 20.0
- isoTOP-ABPP reactivity Q8NDH3_C81 NPEPL1 ([2]; 200 μM, insitu, 231): 20.0

Compound: COc1ccc(C2CC(c3cccs3)=NN2C(=O)CCl)cc1 (centres unmarked) [compound 4]
- isoTOP-ABPP reactivity O14933_C98 UBE2L6 ([3]; 100 μM in situ 231): 3.0
- isoTOP-ABPP reactivity Q00765_018 REEP5 ([4]; 100 μM in situ 231): 20.0
- isoTOP-ABPP reactivity Q2NL82_C126 TSR1 ([1]; 100 μM in situ 231): 13.8
- isoTOP-ABPP reactivity Q8NDH3_C81 NPEPL1 ([2]; 100 μM in situ 231): 20.0
- isoTOP-ABPP reactivity Q96RU2_C171 USP28 ([5]; 100 μM in situ 231): 20.0

Compound: COc1cc2c(cc1OC)CN(C(=O)CCl)CC2 [compound 8]
- isoTOP-ABPP reactivity Q00765_018 REEP5 ([4]; 200 μM, insitu, 231): 2.7
- isoTOP-ABPP reactivity Q8NDH3_C81 NPEPL1 ([2]; 200 μM, insitu, 231): 20.0
- isoTOP-ABPP reactivity Q96RU2_C171 USP28 ([5]; 200 μM, insitu, 231): 1.2

Compound: O=C(CCl)N1CCN(S(=O)(=O)c2ccccc2F)CC1 [compound 10]
- isoTOP-ABPP ratio, cysteine O14933_C98 [3]; 231: 20.0
- isoTOP-ABPP ratio, cysteine O14933_C98 ([3]; ramos): 3.2
- isoTOP-ABPP ratio Q00765_C18 ([4]; 200 μM, insitu, 231): 4.2
- isoTOP-ABPP ratio, cysteine Q2NL82_C126 ([1]; 200 μM, insitu, 231): 4.9
- isoTOP-ABPP ratio, cysteine Q8NDH3_C81 ([2]; 200 μM, insitu, 231): 5.7
- isoTOP-ABPP ratio Q9NY27_C22 ([6]; 200 μM, insitu, ramos): 2.1

Compound: Cn1cc(S(=O)(=O)N2CCOCC2)cc1C(=O)NC(=O)CCl [compound 11]
- isoTOP-ABPP ratio Q00765_C18 ([4]; 100 μM in situ 231): 0.8
- isoTOP-ABPP ratio, cysteine Q96RU2_C171 ([5]; 100 μM in situ 231): 2.2
- isoTOP-ABPP ratio Q9NY27_C22 ([6]; 100 μM in situ 231): 2.3

Compound: O=C(CCl)NC(=O)NC12CC3CC(CC(C3)C1)C2 [compound 12]
- isoTOP-ABPP ratio Q00765_C18 ([4]; 200 μM, insitu, 231): 20.0
- isoTOP-ABPP ratio, cysteine Q2NL82_C126 ([1]; 200 μM, insitu, 231): 20.0
- isoTOP-ABPP ratio, cysteine Q8NDH3_C81 ([2]; 200 μM, insitu, 231): 20.0
- isoTOP-ABPP ratio, cysteine Q96RU2_C171 ([5]; 200 μM, insitu, 231): 20.0
- isoTOP-ABPP ratio Q9NY27_C22 ([6]; 200 μM, insitu, 231): 20.0

Compound: O=C(CCl)NCCc1c[nH]c2ccccc12 [compound 13]
- isoTOP-ABPP ratio Q00765_C18 ([4]; 200 μM, insitu, 231): 1.2
- isoTOP-ABPP ratio Q9NY27_C22 ([6]; 200 μM, insitu, ramos): 1.5

Next, values leading:

- isoTOP-ABPP ratio, cysteine O14933_C98 [3]; 231: 0.7
- isoTOP-ABPP ratio Q00765_C18 ([4]; 200 μM, insitu, 231): 0.7
- isoTOP-ABPP ratio, cysteine Q2NL82_C126 ([1]; 200 μM, insitu, 231): 1.5
- isoTOP-ABPP ratio, cysteine Q8NDH3_C81 ([2]; 200 μM, insitu, 231): 1.6
Compound: O=C(CCl)NC12CC3CC(CC(C3)C1)C2 [compound 21]

- isoTOP-ABPP ratio Q00765_C18 ([4]; 200 μM, insitu, 231): 1.1
- isoTOP-ABPP ratio Q2NL82_C126 ([1]; 200 μM, insitu, 231): 0.4
- isoTOP-ABPP ratio, Q96RU2_C171 ([5]; 200 μM, insitu, 231): 1.1
Compound: CC(C)CCOCCNC(=O)CCl [compound 27]

- isoTOP-ABPP ratio, Q96RU2_C171 ([5]; 200 μM, insitu, 231): 1.1
Compound: COc1ccccc1OCCNC(=O)CCl [compound 28]

- isoTOP-ABPP ratio O14933_C98 ([3]; ramos): 2.4
- isoTOP-ABPP ratio Q00765_C18 ([4]; 200 μM, insitu, ramos): 1.4
- isoTOP-ABPP ratio Q9NY27_C22 ([6]; 200 μM, insitu, ramos): 1.7
Compound: O=C(CCl)N1CCN(CC(=O)N2CCOCC2)CC1 [compound 29]

- isoTOP-ABPP ratio O14933_C98 ([3]; ramos): 1.9
- isoTOP-ABPP ratio Q8NDH3_C81 ([2]; 200 μM, insitu, 231): 1.0
Compound: C=CC(=O)N(Cc1cccnc1)c1cc(C(F)(F)F)cc(C(F)(F)F)c1 [compound 31]

- isoTOP-ABPP ratio O14933_C98 [3]; 231: 1.6
- isoTOP-ABPP ratio Q2NL82_C126 ([1]; 200 μM, insitu, 231): 0.9
- isoTOP-ABPP ratio Q8NDH3_C81 ([2]; 200 μM, insitu, 231): 2.0
- isoTOP-ABPP ratio, Q96RU2_C171 ([5]; 200 μM, insitu, 231): 0.8
- isoTOP-ABPP ratio Q9NY27_C22 ([6]; 200 μM, insitu, 231): 1.0
Compound: C=CC(=O)Nc1cc(F)c(N2CCN(C(=O)OC(C)(C)C)CC2)c(F)c1 [compound 38]

- isoTOP-ABPP ratio O14933_C98 [3]; 231: 0.5
- isoTOP-ABPP ratio Q2NL82_C126 ([1]; 200 μM, insitu, 231): 0.8
- isoTOP-ABPP ratio Q9NY27_C22 ([6]; 200 μM, insitu, 231): 0.8
Compound: Cc1ccc(C=C(C#N)C(=O)NCCN2CCOCC2)cc1 [compound 41]

- isoTOP-ABPP ratio O14933_C98 [3]; 231: 20.0
- isoTOP-ABPP ratio Q00765_C18 ([4]; 200 μM, insitu, 231): 20.0
- isoTOP-ABPP ratio Q2NL82_C126 ([1]; 200 μM, insitu, 231): 20.0
- isoTOP-ABPP ratio Q9NY27_C22 ([6]; 200 μM, insitu, 231): 20.0
Compound: CC1CCc2ccccc2N1C(=O)CCl (centres unmarked) [compound 45]

- isoTOP-ABPP ratio Q2NL82_C126 ([1]; 200 μM, insitu, 231): 1.9
- isoTOP-ABPP ratio Q9NY27_C22 ([6]; 200 μM, insitu, 231): 2.2
Compound: O=C(CCl)Nc1cccc2ncccc12 [compound 51]
